Values quoted from earlier work, collected in patent publication US9109008B2, “Tubulysin compounds, methods of making and use” (priority 2013, dated 2015).

Tested on: cancer cell lines
Conditions: Kaur et al. 2006

CC[C@H](C)[C@H](NC(=O)[C@H]1CCCCN1C)C(=O)N(COC(=O)CC(C)C)[C@H](C[C@@H](OC(C)=O)c1nc(C(=O)N[C@@H](Cc2ccc(O)cc2)C[C@H](C)C(=O)O)cs1)C(C)C [tubulysin A]
antiproliferative potency compared with other antimitotic agents: more potent than other antimitotic agents such as paclitaxel and vinblastine
